Columns and labels:
Plasmopara viticola = assay: D-1: Action against Plasmopara viticola on vines (residual-protective and residual-curative action); assay type: in vivo; conditions: vine seedlings, spray mixture 0.02% active ingredient; evaluated after 6 days at 95-100% relative humidity and 20° C.
Protocol: D-1: Action against Plasmopara viticola on Vines a) Residual-protective Action
Vine seedlings are sprayed at the 4- to 5-leaf stage with a spray mixture (0.02% active ingredient) prepared from a wettable powder formulation of the test compound. After 24 hours, the treated plants are infected with a sporangia suspension of the fungus. Fungus infestation is evaluated after incubation for 6 days at 95-100% relative humidity and 20° C. […]
b) Residual-curative Action
Vine seedlings are infected at the 4- to 5-leaf stage with a sporangia suspension of the fungus. After incubation for 24 hours in a humidity chamber at 95-100% relative humidity and 20° C., the infected plants are dried and sprayed with a spray mixture (0.02% active ingredient) prepared from a wettable powder formulation of the test compound. After the spray coating has dried, the treated plants are placed in the humidity chamber again. Fungus infestation is evaluated 6 days after infection.

Phytophthora [1] = assay: D-2: Action against Phytophthora on tomato plants (residual-protective and systemic action); assay type: in vivo; conditions: spray mixture 0.02% active ingredient, sprayed or watered, evaluated 4-5 days after infection at 90-100% relative humidity and 20° C.
Protocol: D-2: Action Against Phytophthora on Tomato Plants
(§1) a) Residual-protective Action
(§2) After a cultivation period of 3 weeks, tomato plants are sprayed with a spray mixture (0.02% active ingredient) prepared from a wettable powder formulation of the test compound. After 48 hours, the treated plants are infected with a sporangia suspension of the fungus. Fungus infestation is evaluated after incubation of the infected plants for 5 days at 90-100% relative humidity and 20° C.
as §2, with “watered” for “sprayed”, “ingredient based on the volume of the soil)” for “ingredient)”, “compound. […]” for “compound.”, “96” for “48”, “4” for “5”

Phytophthora [2] = assay: D-3: Action against Phytophthora on potato plants (residual-protective and systemic action); assay type: in vivo; conditions: potato plants (Bintje variety), spray mixture 0.02% active ingredient, sprayed or watered; evaluated after 4 days at 90-100% relative humidity and 20° C.
Protocol: D-3: Action Against Phytophthora on Potato Plants
as §1
(§3) 2-3 week old potato plants (Bintje variety) are sprayed with a spray mixture (0.02% active ingredient) prepared from a wettable powder formulation of the test compound. After 48 hours, the treated plants are infected with a sporangia suspension of the fungus. Fungus infestation is evaluated after incubation of the infected plants for 4 days at 90-100% relative humidity and 20° C.
as §3, with “watered” for “sprayed”, “ingredient based on the volume of the soil)” for “ingredient)”, “compound. […]” for “compound.”

Structure (SMILES) | Fungus infestation (fungicidal action against Plasmopara viticola on vines) (Plasmopara viticola) | melting point [°C] | Fungus infestation (action against Phytophthora on tomato plants) (Phytophthora [1]) | Fungus infestation (fungicidal action against Phytophthora on potatoes) (Phytophthora [2])
COc1ccc(CCNC(=O)C(=NSC)c2ccc(-c3ccc(C)cc3)cc2)cc1OC [Compound 11.171, 2-[4-(4-methyl-phenyl)-phenyl]-N-[2-(3,4-di-methoxy-phenyl)-ethyl]-2-methylthioimino-acetamide] | completely inhibit fungal infestation | 40 to 47 |  | 
COc1ccc(CCNC(=O)C(=NSC)c2ccc(-c3ccc(C(C)(C)C)cc3)cc2)cc1OC [Compound 11.351, 2-[4-(4-tert.-butyl-phenyl)-phenyl]-N-[2-(3,4-di-methoxy-phenyl)-ethyl]-2-methylthioimino-acetamide] | completely inhibit fungal infestation | 45 to 52 |  | 
C#CCOc1ccc(CCNC(=O)C(=NSC)c2ccc(Cl)cc2)cc1OC [Compound 14.001, 2-(4-chloro-phenyl)-N-[2-(3-methoxy-4-prop-2-ynyloxy-phenyl)-ethyl]-2-methylthioimino-acetamide] | completely inhibit fungal infestation |  | completely inhibit fungal infestation | completely inhibit fungal infestation
C#CCOc1ccc(CCNC(=O)C(=NSC)c2ccc(Cl)c(Cl)c2)cc1OC [Compound 14.011, 2-(3,4-dichloro-phenyl)-N-[2-(3-methoxy-4-prop-2-ynyloxy-phenyl)-ethyl]-2-methylthioimino-acetamide] | completely inhibit fungal infestation |  | completely inhibit fungal infestation | completely inhibit fungal infestation
C#CCOc1ccc(CCNC(=O)C(=NSC)c2ccc(Br)cc2)cc1OC [Compound 14.031, 2-(4-bromo-phenyl)-N-[2-(3-methoxy-4-prop-2-ynyloxy-phenyl)-ethyl]-2-methylthioimino-acetamide] | completely inhibit fungal infestation |  | completely inhibit fungal infestation | 
CC#COc1ccc(CCNC(=O)C(=NSC)c2ccc(C)cc2)cc1OC [Compound 14.041, N-[2-(3-methoxy-4-prop-ynyloxy-phenyl)-ethyl]-2-methylthioimino-2-(4-tolyl)-acetamide] | completely inhibit fungal infestation |  | completely inhibit fungal infestation | completely inhibit fungal infestation
C#CCOc1ccc(CCNC(=O)C(=NSC)c2ccc(OC)cc2)cc1OC [Compound 14.051, 2-(4-methoxy-phenyl)-N-[2-(3-methoxy-4-prop-2-ynyloxy-phenyl)-ethyl]-2-methylthioimino-acetamide] | completely inhibit fungal infestation |  |  | 
C#CCOc1ccc(CCNC(=O)C(=NSC)c2ccc(F)cc2)cc1OC [Compound 14.071, 2-(4-fluoro-phenyl)-N-[2-(3-methoxy-4-prop-2-ynyloxy-phenyl)-ethyl]-2-methylthioimino-acetamide] | completely inhibit fungal infestation |  |  | 
C#CCOc1ccc(CCNC(=O)C(=NSC)c2ccc3ccccc3c2)cc1OC [Compound 14.121, N-[2-(3-methoxy-4-prop-ynyloxy-phenyl)-ethyl]-2-naphthalen-2-yl-2-methylthioimino-2-acetamide] | completely inhibit fungal infestation |  |  | 

— US6479550B1, “α-sulfenimino acid derivatives” (priority 1999, dated 2002)
